Measurements published in patent US8778946B2, “3-substituted-6-(pyridinylmethoxy)-pyrrolopyridine compounds” (Eli Lilly and Company, priority 2010, dated 2014).
pIC50: −log10 of the molar value. Where “and” joins values, the source holds several entries; their conditions need not be identical. Equal entries are not always repeated. Marks after values point to notes of the source that are not given here.

Legend:
[1] = tested on: C57/black 6J male mice; test: Reversal of reserpine-induced akinesia; assay type: in vivo
Experimental: (§1) Anti-Parkinson effects of compounds of the invention can be determined using procedures well known in the art such as animal models of locomotor activity. For example, compounds of the invention show effects on basal (habituated) locomotor activity and on reserpine-induced akinesia in C57/black 6J male mice.
Reserpine is a catecholamine depleting agent (depletes dopamine and noradrenaline) and 18-24 hours after treatment mice become akinetic and have reduced locomotor activity counts. Reserpine-induced akinesia is assessed by measuring the effect of compounds on locomotor activity approximately 18-24 hours after a single dose of 1 mg/kg reserpine i.p. The equipment used is the same as that used for basal locomotor activity (above).
(§2) Mice are randomly assigned to treatment groups. Each mouse is placed individually into one of the locomotor activity boxes. Distance moved (cm) is recorded per 5 minutes for each mouse. Basal and reserpine-induced exploratory behavior is assessed for the following 30 minutes. After 30 minutes recording stops and mice are dosed p.o. with the test compound in a volume of 10 ml/kg. Once all mice have been dosed locomotor activity recording is started for a further 120 minutes to assess the effect of treatment on akinesia. Data is transferred from the software/computers to spreadsheets for further analysis. Statistical analysis is carried out using Statistica 8.0. One way ANOVA on TOTAL distance moved, with Treatment group as the between factor, is calculated. If a significant Treatment effect (p≦0.05) is observed then post-hoc analysis is performed, either Fishers' LSD or Dunnetts' test.

[2] = tested on: C57/black 6J male mice; test: Basal (habituated) locomotor activity; assay type: in vivo
Experimental: as §1
Locomotor activity is measured using an automated system to track movement in mice. Mice are placed in chambers and allowed to habituate to the chambers for 30 mins. During this time they show reduced locomotion over time. Following administration of a compound of the invention, animal movement is restored to pre-habituation levels.
More specifically, locomotor activity boxes [40×40×40 cm clear arenas] are situated in groups of 4 placed on infrared tables and testing is performed in the dark. Locomotor activity is recorded and measured using infrared video tracking. Locomotor activity is recorded between time of 8:30 and 17:00 hours. In some instances locomotor activity is measured using open fields which use infrared beam breaks as a measure of movement.
as §2, with “mouse. Exploratory” for “mouse. Basal and reserpine-induced exploratory”, “compound or vehicle” for “compound”, “been dosed,” for “been dosed”, “on habituated locomotor activity.” for “on akinesia.”

[3] = tested on: male Fischer F-344 Sasco rats; test: Attenuation of stress-induced hyperthermia in rats; assay type: in vivo; conditions: oral, 60-min pretreatment
Experimental: Stress-induced hyperthermia is attenuated by clinical anxiolytics and is widely used preclinically to predict anxiolytic efficacy of compounds.
In separate studies, male Fischer F-344 Sasco rats are dosed orally with 0.3, 1, 3, or 10 mg/kg of test compound in a vehicle consisting of 1% carboxymethylcellulose, 0.25% polysorbate 80, 0.05% antifoam (dose volume=1 ml/kg). The mGluR5 receptor antagonist MTEP (3-[(2-methyl-1,3-thiazol-4-yl)ethynyl]pyridine) (10 mg/kg, PO) is used as a quality control. Following a 60-min pretreatment period, core baseline body temperature is measured (T1, in degrees C.) and then ten minutes later a second body temperature measurement is recorded (T2). The change in body temperature (T2 minus T1) is defined as the stress-induced hyperthermic response. The efficacious dose is the dose at which a compound produces a 35% reduction in stress-induced hyperthermia, relative to the vehicle response, and is defined as the T35 dose.

[4] = target: T1, human mGluR5 (Homo sapiens, UniProt P41594); test: Human mGluR5 in vitro functional assay (FLIPR calcium, antagonism of glutamate EC90 response); assay type: cell-based; conditions: AV-12 cells expressing recombinant human mGlu5a, relative IC50
T1 construct: expressed in transfected cells; host or cells: AV-12 cells containing the rat EAAT1 glutamate transporter
T1 sequence (P41594 21-1180 isoform P41594-2 limits assumed): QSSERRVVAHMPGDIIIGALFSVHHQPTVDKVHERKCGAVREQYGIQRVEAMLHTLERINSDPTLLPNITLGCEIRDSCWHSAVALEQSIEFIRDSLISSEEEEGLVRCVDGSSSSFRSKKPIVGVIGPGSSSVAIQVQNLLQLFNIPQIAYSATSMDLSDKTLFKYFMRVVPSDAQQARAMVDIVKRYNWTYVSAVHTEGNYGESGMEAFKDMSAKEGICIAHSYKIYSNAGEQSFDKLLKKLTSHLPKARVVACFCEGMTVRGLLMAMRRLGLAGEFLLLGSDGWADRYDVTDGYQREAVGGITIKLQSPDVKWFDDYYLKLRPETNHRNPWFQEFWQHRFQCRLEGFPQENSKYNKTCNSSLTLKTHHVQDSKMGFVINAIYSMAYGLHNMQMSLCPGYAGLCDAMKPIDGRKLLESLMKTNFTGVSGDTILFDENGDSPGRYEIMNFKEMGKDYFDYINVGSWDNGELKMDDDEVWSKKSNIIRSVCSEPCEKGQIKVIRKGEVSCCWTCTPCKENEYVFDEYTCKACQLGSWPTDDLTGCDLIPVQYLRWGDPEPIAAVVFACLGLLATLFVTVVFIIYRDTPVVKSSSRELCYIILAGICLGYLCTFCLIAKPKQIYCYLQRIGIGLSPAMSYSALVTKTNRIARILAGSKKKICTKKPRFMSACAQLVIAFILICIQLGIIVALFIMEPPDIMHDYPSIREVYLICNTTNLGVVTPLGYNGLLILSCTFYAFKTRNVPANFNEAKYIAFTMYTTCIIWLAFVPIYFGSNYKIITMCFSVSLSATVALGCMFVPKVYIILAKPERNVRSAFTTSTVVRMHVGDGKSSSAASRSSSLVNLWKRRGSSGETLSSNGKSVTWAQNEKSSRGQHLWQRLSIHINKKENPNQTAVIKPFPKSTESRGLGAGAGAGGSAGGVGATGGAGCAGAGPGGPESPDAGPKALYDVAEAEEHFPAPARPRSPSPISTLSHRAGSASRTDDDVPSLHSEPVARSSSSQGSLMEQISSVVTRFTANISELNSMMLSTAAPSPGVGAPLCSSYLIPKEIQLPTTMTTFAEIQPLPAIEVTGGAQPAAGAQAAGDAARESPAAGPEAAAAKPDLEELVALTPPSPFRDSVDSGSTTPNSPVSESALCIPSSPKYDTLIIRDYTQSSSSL
Description: (§3) The activation of G-protein coupled receptors (GPCRs) that are coupled to Gq proteins results in a change in intracellular calcium concentration. This functional response can be measured in a kinetic assay using calcium-sensitive dyes and a fluorescent imaging plate reader using a standard technique known as FLIPR (MDS Analytical Technologies, Sunnyvale, Calif.).
(§4) Stable cell line preparation and assay techniques are adapted from Kingston, A. E., et. al. (1995) Neuropharmacology 34: 887-894. […]
(§5) For the functional assays, cells are seeded in growth medium lacking selection antibiotics at a density of 65K per well into 96-well, black/clear bottom, poly-D-lysine coated microplates and incubated for 18-20 hours prior to the experiment. […] The antagonist effects of compounds are quantified in the FLIPR instrument in 10-point dose curves by comparing the peak fluorescent responses to the agonist glutamate in the presence and absence of compound. Specifically, the compound effect is measured as maximal minus minimal peak heights in relative fluorescent units corrected for basal fluorescence as measured in the absence of glutamate. All data are calculated as relative IC50 values using a four-parameter logistic curve fitting program (Activity Base® v5.3.1.22).

[5] = target: T2, human mGluR1 (Homo sapiens, UniProt Q13255); test: Human mGluR1 in vitro functional assay (FLIPR calcium, antagonism of glutamate EC90 response); assay type: cell-based; conditions: AV-12 cells expressing recombinant human mGlu1α, relative IC50
T2 construct: expressed in transfected cells; host or cells: AV-12 cells containing the rat EAAT1 glutamate transporter
T2 sequence (Q13255 19-1194): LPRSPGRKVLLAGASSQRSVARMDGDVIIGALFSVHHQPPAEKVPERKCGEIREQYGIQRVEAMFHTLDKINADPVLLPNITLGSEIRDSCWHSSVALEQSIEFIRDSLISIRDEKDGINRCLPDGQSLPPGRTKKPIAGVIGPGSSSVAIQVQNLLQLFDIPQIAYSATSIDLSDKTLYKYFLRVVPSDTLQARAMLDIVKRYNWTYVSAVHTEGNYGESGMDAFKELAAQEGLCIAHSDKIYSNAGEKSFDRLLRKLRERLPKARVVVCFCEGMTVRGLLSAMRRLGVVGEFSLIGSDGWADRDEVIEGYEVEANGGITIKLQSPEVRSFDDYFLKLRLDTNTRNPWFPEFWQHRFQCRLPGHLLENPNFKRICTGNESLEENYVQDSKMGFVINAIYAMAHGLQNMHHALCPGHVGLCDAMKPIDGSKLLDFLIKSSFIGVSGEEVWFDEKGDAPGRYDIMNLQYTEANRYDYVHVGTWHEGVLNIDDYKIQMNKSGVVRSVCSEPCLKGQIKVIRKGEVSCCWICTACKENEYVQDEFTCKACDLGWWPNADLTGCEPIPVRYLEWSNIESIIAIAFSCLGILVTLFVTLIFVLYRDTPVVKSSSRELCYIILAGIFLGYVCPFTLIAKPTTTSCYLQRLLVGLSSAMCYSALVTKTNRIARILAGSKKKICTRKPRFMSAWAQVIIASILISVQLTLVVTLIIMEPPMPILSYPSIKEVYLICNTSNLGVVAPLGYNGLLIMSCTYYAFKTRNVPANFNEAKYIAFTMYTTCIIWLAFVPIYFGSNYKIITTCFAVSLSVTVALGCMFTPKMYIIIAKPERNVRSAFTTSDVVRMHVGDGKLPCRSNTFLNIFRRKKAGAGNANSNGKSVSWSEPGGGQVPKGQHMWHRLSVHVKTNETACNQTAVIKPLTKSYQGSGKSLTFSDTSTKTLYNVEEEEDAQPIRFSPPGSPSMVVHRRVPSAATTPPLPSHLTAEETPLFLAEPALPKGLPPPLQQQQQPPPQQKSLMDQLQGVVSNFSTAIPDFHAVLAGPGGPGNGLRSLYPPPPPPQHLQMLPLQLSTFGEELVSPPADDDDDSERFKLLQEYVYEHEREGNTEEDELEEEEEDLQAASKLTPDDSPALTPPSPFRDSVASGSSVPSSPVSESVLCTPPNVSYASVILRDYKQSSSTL
Description: as §3, §4, §5

[6] = tested on: Male, NIH-Swiss mice; test: Mouse forced-swim; assay type: in vivo
Experimental: Male, NIH-Swiss mice (20-25 g, Harlan Sprague-Dawley, Indianapolis, Ind.) are used in a method modified from that of Porsolt R D, Le Pichon M, Jalfre M Depression: a new animal model sensitive to antidepressant treatments. Nature. 1977 Apr. 21; 266(5604):730-2. Mice are placed in clear plastic cylinders (diameter 10 cm; height: 25 cm) filled to 6 cm with 22-25° C. water for six min. The duration of immobility is recorded during the last 4 min of a six-minute trial. A mouse is regarded as immobile when floating motionless or making only those movements necessary to keep its head above the water. Data are analyzed by post-hoc Dunnett's test with alpha level set at 0.05. The amount of time spent immobile is measured. Means+S.E.M. are subjected to ANOVA followed by Dunnett's test with p<0.05 set as the error rate for statistical significance. ED60 values are extrapolated from the linear portion of the dose-effect curve and represent the dose predicted to decrease basal immobility (100% at 0 mg/kg compound) by 60%. The maximal decrease in immobility time is calculated using the largest decrease in immobility produced at any dose of a compound with this formula: (100-immobility with compound/immobility under vehicle control) %.

[7] = reserpine 1 mg/kg i.p. + 3 mg/kg p.o. test compound
[8] = reserpine 1 mg/kg i.p. + 10 mg/kg p.o. test compound

Structure (SMILES) | Reversal of Reserpine-Induced Akinesia (mean distance moved (cm) in 120 min) [1, 7] | Reversal of Reserpine-Induced Akinesia (mean distance moved (cm) in 120 min) [1, 8] | Basal Locomotor Activity (mean distance moved (cm) in 120 min) ([2]; 3 mg/kg p.o.) | Basal Locomotor Activity (mean distance moved (cm) in 120 min) ([2]; 10 mg/kg p.o.) | also measured
CCOC(=O)N1CCN(c2cn(C)c3nc(OCc4ccccn4)c(Cl)cc23)C(=O)C1 [Example 27, Ethyl 4-[5-chloro-1-methyl-6-(pyridin-2-ylmethoxy)-1H-pyrrolo[2,3-b]pyridin-3-yl]-3-oxopiperazine-1-carboxylate] | 27053.7 ***+++ cm | 23432.5 **+++ cm | 35290.1 *** cm | 36889.1 *** cm | 
CCOC(=O)N1CCN(c2cn(C)c3nc(OCc4ccccn4)ccc23)C(=O)C1 [Example 1, ethyl 4-[1-methyl-6-(pyridin-2-ylmethoxy)-1H-pyrrolo[2,3-b]pyridin-3-yl]-3-oxopiperazine-1-carboxylate] | 23611 ***+++ cm |  | 15980 *** cm | 25109 *** cm | Reversal of Reserpine-Induced Akinesia (mean distance moved (cm) in 120 min) ([1]; reserpine 1 mg/kg i.p. + 1 mg/kg p.o. test compound): 15392 ++ cm; Reversal of Reserpine-Induced Akinesia (mean distance moved (cm) in 120 min) ([1]; reserpine 1 mg/kg i.p. + 30 mg/kg p.o. test compound): 32607 ***+++ cm; T35 dose (dose producing a 35% reduction in stress-induced hyperthermia relative to vehicle) [3]: 0.55 mg/kg; pIC50 [4]: 6.74; melting point: 143.42 °C; pIC50 [5]: < 4.90; Basal Locomotor Activity (mean distance moved (cm) in 120 min) ([2]; 1 mg/kg p.o.): 12147 ** cm; ED60 dose, reduction in forced swim immobility ([6]; extrapolated from linear portion of dose-effect curve): 8.6 mg/kg; maximal decrease in immobility ([6]; largest decrease at any dose relative to vehicle control): 50.6%
CC(C)OC(=O)N1CCN(c2cn(C)c3nc(OCc4ccccn4)ccc23)C(=O)C1 [Example 4, 1-Methylethyl 4-[1-methyl-6-(pyridin-2-ylmethoxy)-1H-pyrrolo[2,3-b]pyridin-3-yl]-3-oxopiperazine-1-carboxylate] | 16474.1 + cm | 23394.4± **+++ cm | 30715.2 ** cm | 39935.6 *** cm | 
CCCOC(=O)N1CCN(c2cn(C)c3nc(OCc4ccccn4)ccc23)C(=O)C1 [Example 3, Propyl 4-[1-methyl-6-(pyridin-2-ylmethoxy)-1H-pyrrolo[2,3-b]pyridin-3-yl]-3-oxopiperazine-1-carboxylate] |  |  | 28458.8 *** cm | 39857.5 *** cm | T35 dose (dose producing a 35% reduction in stress-induced hyperthermia relative to vehicle) [3]: 0.93 mg/kg
CCn1cc(N2CCN(C(=O)OC)CC2=O)c2ccc(OCc3ccccn3)nc21 [Example 23, methyl 4-[1-ethyl-6-(pyridin-2-ylmethoxy)-1H-pyrrolo[2,3-b]pyridin-3-yl]-3-oxopiperazine-1-carboxylate] |  |  | 21628.2 ** cm | 31070.8 *** cm | 
COC(=O)[C@H]1[C@H]2C[C@@H]3c4[nH]c5cc(OC)ccc5c4CCN3C[C@H]2C[C@@H](OC(=O)c2cc(OC)c(OC)c(OC)c2)[C@@H]1OC [reserpine, Reserpine, reference compound] |  |  |  |  | mean distance moved (cm) in 120 min, reserpine alone ([1]; 18-24 hours after single dose of 1 mg/kg reserpine i.p., no test compound, 1 mg/kg): 4118.6 cm and 7331.1 cm and 4597.2 cm and 6150 cm
CCOC(=O)N1CCN(c2cn(C)c3nc(OCc4ccccn4)c(C)cc23)C(=O)C1 [Example 28, Ethyl 4-[1,5-dimethyl-6-(pyridin-2-ylmethoxy)-1H-pyrrolo[2,3-b]pyridin-3-yl]-3-oxopiperazine-1-carboxylate] | 7848.9 cm | 14087.6 **+++ cm | 25074.1 ** cm | 32866.2 *** cm | 
